This passage reports IC50 results from PMC6837341, “Evolutionarily conserved susceptibility of the mitochondrial respiratory chain to SDHI pesticides and its consequence on the impact of SDHIs on human cultured cells” (PLoS ONE, 2019).

Common to all, as to assay type: biochemical
Assay [1] addresses T1, glycerol-3-phosphate cytochrome c reductase (G3PDH+CIII) (Homo sapiens, UniProt P00156).
T1 construct: the pellets were permeabilized by two freeze-thaw cycles before enzyme assays; endogenous in cells; host or cells: HEK293, freeze-thawed cell pellets
The assay is described as follows: Glycerol-3-phosphate cytochrome c reductase (GCCR) activity, freeze-thawed HEK cells. The method, then:
(§1) The cells were grown in T75 flasks using 10 ml Dulbecco’s modified Eagle's minimal essential medium (DMEM) either containing 1 or 4.5 g/l glucose, 4 mM glutamine (glutamax; Gibco Thermo Fisher Scientific, MA), 2 mM pyruvate and 200 μM uridine (permissive medium, thereafter referred as GlucoMax) or lacking glucose, pyruvate and uridine but containing 4 mM glutamine (nonpermissive medium, thereafter referred as MitoMax; S1 Table). All media were supplemented with 10% fetal calf serum and 100 U/mL each penicillin and streptomycin. HEK293 human embryonic kidney cells were cultured in DMEM containing 4.5 g/L glucose, 4 mM glutamine, 10% fetal calf serum, 200 μM uridine, 2 mM pyruvate, and 100 U/mL each penicillin and streptomycin [9]. Cell pellets (1,500 g for 5 min) were kept frozen (-80°C), and for biochemical studies, the pellets were permeabilized by two freeze-thaw cycles before enzyme assays.
(§2) RC enzyme activities were spectrophotometrically measured using a pseudo-double-wavelength spectrophotometer (Cary 60, Agilent). Malonate-sensitive succinate quinone dichlorophenolindophenol (DCPIP) reductase (SQDR), as an indicator of the activity of the isolated SDH enzyme (isolated CII), and glycerol-3-phosphate quinone DCPIP reductase (GQDR), as a measure of the activity of the isolated glycerol-3-phosphate dehydrogenase (G3PDH), were assayed as previously described. To study the effect of SDHIs on the RC, we had to take into consideration the fact that these inhibitors act through binding to quinone-binding sites in the RC. Accordingly, we observed that the extent of the inhibitory effects of these substances varies with the addition of exogenous quinones (Fig 1). […] With this aim, we measured the malonate-sensitive succinate cytochrome c reductase (SDH+CIII), glycerol-3-phosphate cytochrome c reductase (G3PDH+CIII) and antimycin-sensitive quinol cytochrome c reductase (CIII) as previously described.
(§3) The effects of eight different SDHIs (up to 500 μM; S2 Fig) were determined on four different biological materials. Because IC50 are known to be affected by the actual absolute activity of the tested enzyme, these IC50 were quantified using similar levels of SDH enzyme activity during the assay. IC50 values were determined using the AAT Bioquest IC50 calculator tool (https://www.aatbio.com/tools/ic50-calculator).

Assay [2] addresses T2, succinate cytochrome c reductase (SDH+CIII) (Botrytis cinerea, UniProt A0A384J5E4+D2IH01+D2IH03).
T2 sequence (A0A384J5E4 30-300): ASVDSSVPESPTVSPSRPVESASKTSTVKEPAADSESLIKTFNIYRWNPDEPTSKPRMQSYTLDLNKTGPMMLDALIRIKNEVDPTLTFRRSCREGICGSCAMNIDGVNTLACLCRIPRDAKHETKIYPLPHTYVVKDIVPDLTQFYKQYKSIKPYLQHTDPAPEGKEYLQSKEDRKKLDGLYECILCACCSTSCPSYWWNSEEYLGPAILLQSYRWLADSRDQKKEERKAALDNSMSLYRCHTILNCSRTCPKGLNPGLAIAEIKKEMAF
T2 sequence (D2IH03 46-189): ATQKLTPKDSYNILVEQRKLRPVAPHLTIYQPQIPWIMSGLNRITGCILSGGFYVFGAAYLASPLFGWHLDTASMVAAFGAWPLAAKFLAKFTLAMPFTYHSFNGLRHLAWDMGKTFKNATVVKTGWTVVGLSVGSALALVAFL
T2 sequence (D2IH01 64-192): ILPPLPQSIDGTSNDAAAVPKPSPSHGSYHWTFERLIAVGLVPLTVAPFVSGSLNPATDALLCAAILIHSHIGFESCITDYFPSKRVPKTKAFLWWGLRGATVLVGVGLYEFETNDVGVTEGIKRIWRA
The assay is described as follows: SCCR activity, Botrytis cinerea mitochondria. The method, then:
The mixed population of B. cinerea fungi used in this study was kindly provided by Dr. Joelle Dupont (Museum National d’Histoire Naturelle, Paris, France). Conidia from Botrytis cinerea were obtained from 15–30 d cultures grown on malt medium agar plates. Mycelial colonies were prepared by seeding conidia from 10 colonies in liquid medium (10 g of glucose, 2 g of KH2PO4, 0.5 g of MgSO47H2O, 1 g of (NH4)2SO4, 2 g of yeast extract and deionized water up to 1 l, pH 6.2). Incubation was performed at 23°C until hyphae totally covered the surface of the bottle. The hyphae (9-cm-diameter disks) were harvested, washed twice with refrigerated distilled water and finally with mitochondria extraction medium containing 20 mM Tris (pH 7.2), 0.25 M sucrose, 40 mM KCl, 2 mM EGTA, 1 mg/ml BSA, and no cysteine. The hyphae were suspended in 150 ml of extraction medium, cut in small pieces (1 cm^2) and then disrupted at high speed for 1×2 sec and at low speed for 2×3 sec using a MultiMoulinex mixer (Moulinex, France). The suspension of disrupted hyphae was then filtered through two layers of nylon cloth (clearance 150 μm). The cloth was washed with 50 ml of extraction medium. After low-speed centrifugation (700 g for 15 min), the mitochondria were collected at 10,000 g for 20 min. The pellet was suspended in 250 μl of extraction medium, aliquoted (± 30 μl) and kept frozen at -80°C.
as §2, with “described.” for “described. To study the effect of SDHIs on the RC, we had to take into consideration the fact that these inhibitors act through binding to quinone-binding sites in the RC. Accordingly, we observed that the extent of the inhibitory effects of these substances varies with the addition of exogenous quinones (Fig 1).”
as §3

The target in assay [3] is succinate cytochrome c reductase (SDH+CIII) (Homo sapiens, UniProt O14521+P21912+Q99643). The assay is described as follows: Malonate-sensitive succinate cytochrome c reductase (SCCR) activity, freeze-thawed HEK cells. Further details: the pellets were permeabilized by two freeze-thaw cycles before enzyme assays; endogenous in cells; host or cells: HEK293, freeze-thawed cell pellets. To be noted: no exogenous quinone. The method, then: as §1, §2, §3
Sequence of succinate cytochrome c reductase (SDH+CIII) (Homo sapiens, UniProt O14521+P21912+Q99643) (P21912 29-280): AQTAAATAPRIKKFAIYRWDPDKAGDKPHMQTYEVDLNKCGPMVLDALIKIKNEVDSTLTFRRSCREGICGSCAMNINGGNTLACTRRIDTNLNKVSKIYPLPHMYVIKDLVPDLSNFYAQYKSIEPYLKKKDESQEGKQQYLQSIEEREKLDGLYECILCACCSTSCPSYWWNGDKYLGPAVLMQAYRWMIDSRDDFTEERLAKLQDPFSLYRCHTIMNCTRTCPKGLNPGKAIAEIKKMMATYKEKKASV
Sequence of succinate cytochrome c reductase (SDH+CIII) (Homo sapiens, UniProt O14521+P21912+Q99643) (Q99643 30-169): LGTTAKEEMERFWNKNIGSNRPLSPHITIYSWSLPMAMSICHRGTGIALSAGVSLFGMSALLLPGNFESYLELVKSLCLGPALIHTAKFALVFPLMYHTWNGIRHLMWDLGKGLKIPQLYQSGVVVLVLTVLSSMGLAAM
Sequence of succinate cytochrome c reductase (SDH+CIII) (Homo sapiens, UniProt O14521+P21912+Q99643) (O14521 57-159): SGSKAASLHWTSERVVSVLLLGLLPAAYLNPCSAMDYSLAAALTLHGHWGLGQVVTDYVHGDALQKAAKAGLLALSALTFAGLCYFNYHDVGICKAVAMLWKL
Sequence of succinate cytochrome c reductase (SDH+CIII) (Homo sapiens, UniProt O14521+P21912+Q99643) (P31040 43-664 partner): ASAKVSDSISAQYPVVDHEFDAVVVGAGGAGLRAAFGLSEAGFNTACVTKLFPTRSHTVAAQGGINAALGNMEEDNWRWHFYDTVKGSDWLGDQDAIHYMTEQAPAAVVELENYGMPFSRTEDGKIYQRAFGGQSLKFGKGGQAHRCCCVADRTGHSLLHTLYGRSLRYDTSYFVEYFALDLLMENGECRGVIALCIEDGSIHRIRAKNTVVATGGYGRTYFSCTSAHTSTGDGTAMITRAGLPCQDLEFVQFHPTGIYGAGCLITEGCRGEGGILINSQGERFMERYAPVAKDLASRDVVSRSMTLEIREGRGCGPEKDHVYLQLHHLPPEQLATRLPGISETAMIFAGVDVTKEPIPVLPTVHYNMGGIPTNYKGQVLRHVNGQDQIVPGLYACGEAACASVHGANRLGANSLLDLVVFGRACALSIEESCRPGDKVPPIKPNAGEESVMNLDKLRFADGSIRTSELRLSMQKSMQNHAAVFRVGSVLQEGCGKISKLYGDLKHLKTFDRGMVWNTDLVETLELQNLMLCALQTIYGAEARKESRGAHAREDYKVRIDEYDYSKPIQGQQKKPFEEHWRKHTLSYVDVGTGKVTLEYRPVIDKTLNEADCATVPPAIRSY

Where [4] appears, read: Homo sapiens, freeze-thawed HEK cells, read-out: IC50 GCCR.
The mark [5] stands for this setting: Botrytis cinerea mitochondria, read-out: IC50 SCCR.

Where two headings read alike, the source gives them in different places.

On to `Cn1cc(C(=O)Nc2ccc(F)cc2-c2ccc(Cl)c(Cl)c2)c(C(F)F)n1` [Bixafen, bixafen], for which the half-inhibitory concentration (IC50) (usually the midpoint of a concentration-inhibition curve) is 21.1 µM in assay [1] (setting [4]); 0.07 µM in assay [2] (setting [5]); at most 1 µM in assay [3] (n ≥ 3, listed as bixafen, read-out: IC50 SCCR); 0.34 µM in assay [3] (n ≥ 3, read-out: IC50 SCCR).

In the case of `Cn1cc(C(=O)Nc2ccccc2-c2cc(F)c(F)c(F)c2)c(C(F)F)n1` [Fluxapyroxad, fluxapyroxad], the half-maximal inhibitory concentration (IC50) was over 500 µM in assay [1] (setting [4]); 0.095 µM in assay [2] (setting [5]); 2.1 µM in assay [3] (n ≥ 3, read-out: IC50 SCCR).

Regarding `Cc1nn(C)c(F)c1C(=O)Nc1ccccc1C(C)CC(C)C` (stereo not drawn) [Penflufen, penflufen], the 50% inhibitory concentration (IC50) is over 500 µM in assay [1] (setting [4]); 0.13 µM in assay [2] (setting [5]); at most 1 µM in assay [3] (n ≥ 3, listed as penflufen, read-out: IC50 SCCR); 1.3 µM in assay [3] (n ≥ 3, read-out: IC50 SCCR).

With `CC(C)Oc1cccc(NC(=O)c2ccccc2C(F)(F)F)c1` [Flutolanil, flutolanil], the IC50 in assay [1] (setting [4]) was over 500 µM; in assay [2], 8.6 µM; in assay [3] (n ≥ 3, read-out: IC50 SCCR), 18.7 µM.

As to `CC(C)C1C2CCC1c1c(NC(=O)c3cn(C)nc3C(F)F)cccc12` (stereo not drawn) [Isopyrazam, isopyrazam], the 50% inhibitory concentration (IC50) in assay [1] (setting [4]) is 51.3 µM; in assay [2] (setting [5]), 0.023 µM; in assay [3] (n ≥ 3, listed as isopyrazam, read-out: IC50 SCCR) it was at most 1 µM; in assay [3] (n ≥ 3, read-out: IC50 SCCR), 0.63 µM.

For `CC(C)CC(C)c1sccc1NC(=O)c1cn(C)nc1C(F)(F)F` (stereo not drawn) [Penthiopyrad, penthiopyrad], the IC50 in assay [1] was 211 µM; in assay [2], 0.045 µM; in assay [3] (IC50 SCCR, n ≥ 3), 3.7 µM.

For the compound `O=C(Nc1ccccc1-c1ccc(Cl)cc1)c1cccnc1Cl` [Boscalid, boscalid], the half-inhibitory concentration (IC50) is over 500 µM in assay [1]; 0.8 µM in assay [2]; 4.8 µM in assay [3] (IC50 SCCR, n ≥ 3).
